For orientation: IC50 means the concentration that inhibits the measured activity by half.

Nine compounds from patent US5719287A, “Intermediates for inhibitors of HIV protease and method of preparation thereof” (Eli Lilly and Company, priority 1995, dated 1998) can be followed below.

This experiment deals with T1, HIV-1 protease (Human immunodeficiency virus type 1 group M subtype B, UniProt P04585).
T1 construct: Purified HIV-1 protease was obtained as described below; made in house; host or cells: E. coli K12 L507/pHP10D (NRRL B-18560)
Briefly: biochemical. Conditions: for IC50: read-out: Fluorescence Assay IC50 (converted). The protocol:
N^α -Biotin-[…]Ne-FITC)-OH
The purified peptide was labeled as follows with a fluorescent marker at the C-terminal end for use in the assay. N^α -Biotin-Gly-Ser-Gln-Asn-Tyr-Pro-lle-Val-Gly-Lys-OH (1.206 g, 0.936 mmoles) was dissolved in 100 mL of 0.1M sodium borate, pH 9.5 with stirring. Then, 3 g of fluorescein isothiocyanate (7.7 mmol) was dissolved in 15 mL dimethyl sulfoxide and the solution added to the reaction in 10 equal portions over the course of a two hour period. The reaction was allowed to proceed for a further one hour after the final addition had been made. The pH of the solution was adjusted to 3 with 5N HCl. A precipitate formed which was removed from the reaction by centrifugation.
Fluorescence HIV-1 Protease Inhibitor Assay Procedure.
To each well of a round bottom, 96-well plate is added 20 μl of the Enzyme Solution followed by 10 μl of the compound to be evaluated in 20% aqueous DMSO. Purified HIV-1 protease was obtained as described below. The solution is incubated for one hour at room temperature and then 20 μl of a solution of the substrate N^α -Biotin-[…]N^e -FITC)-OH, in MES-ALB buffer (1.5 μl/ml) is added to each well. The solutions are incubated for 16 hours at room temperature and thereafter to each well is added 150 μl of MES-ALB buffer.
To each well of a 96-well Pandex plate is added 25 μl of the Avidin Coated Beads Solution. Next, 25 μl of the diluted incubation solutions, described above, are added to each well of the Pandex plate. The solutions are mixed well and the plates are loaded into a Pandex® machine, washed, evacuated and read. Sample detection was performed by excitation at 485 nm and reading the resulting epifluorescence at 535 nm.
A culture of E. coli K12 L507/pHP10D was grown to mid-log phase at 32° C. in LB media containing 12.5 μg/ml tetracycline. The cultivation temperature was quickly elevated to 40° C. to induce gene expression, and the cells were allowed to grow for 2.5 hours at this temperature before the culture was quickly chilled on ice. The cells were centrifuged and the cell pellet was resuspended in 20 ml 50 mmol MES buffer (pH 6.0) containing 1 mmol EDTA, 1 mmol DTT, 1 mmol PMSF, and 10% glycerol (Buffer A). Cells were lysed by sonication using a Fischer Model 300 Dismembrator and a microtip probe. […] Enzymatic activity was measured by HPLC using the synthetic peptide SQNYPIV as described in Margolin et al., Biochem. Biophys. Res. Commun., 167, 554-560 (1990); the production of the pl peptide (SQNY) was measured.
Active fractions were pooled, made 1.2M in ammonium sulfate, and applied to a hexyl agarose column (2.0×18 cm) equilibrated in Buffer A containing 1.2M ammonium sulfate. The sample, in 125 ml (1.85 mg/ml), was loaded at a flow rate of 1 ml/min at 4° C. […] The column was then washed isocratically in Buffer A for 120 min. Active fractions were pooled, concentrated to 10 ml using an Amicon stirred cell with a YM-10 membrane, and applied at 1 ml/min to a MonoS cation exchange column (1.0×10 cm) equilibrated in Buffer A. After washing isocratically for 30 min, protease was eluted using a linear gradient of 0-0.45M NaCl in Buffer A over 40 min followed by an isocratic wash with Buffer A containing 0.45M NaCl over 30 min. Chromatography was performed at 25° C.
Pooled active fractions were concentrated to 200 ul using an Amicon stirred cell and a YM-10 membrane, and the protease was then applied to a Superose 6 size exclusion column equilibrated in Buffer A containing 0.1M NaCl. The column was washed isocratically in this buffer at a flow rate of 0.5 ml/min.

Where [1] appears, read: purified HIV-1 protease, MES-ALB buffer pH 5.5, 1 h preincubation, 16 h with substrate, room temperature, IC50 values for Examples 2-70 are standardized relative to Ex 1.

Read-outs that look alike come from different tables or passages of the source.

In the case of `CC(C)(C)NC(=O)c1ccccc1C[C@@H](O)[C@H](Cc1ccc(O)cc1)NC(=O)[C@H](CC(N)=O)NC(=O)c1ccc2ccccc2n1` [Example 10, [1S-(1R*, 4R*. 5S*) ]-N-(1-(2-amino-2-oxoethyl)-2-oxo-3-aza-4-(4-hydroxyphenyl)methyl-5-hydroxy-6-(2-(1-t-butylamino-1-oxomethyl)phenyl)hexyl)-2-quinolinyl carboxamide], the IC50 is 94.3 nM.

With `CC(C)(C)C(=O)Nc1ccccc1C[C@@H](O)[C@H](Cc1ccccc1)NC(=O)[C@H](CC(N)=O)NC(=O)c1ccc2ccccc2n1` [Example 18, [1S-(1R*, 4R*, 5S*)]-N-(1-(2-amino-2-oxoethyl)-2-oxo-3-aza-4-phenylmethyl-5-hydroxy-6-(2-(2,2-dimethyl-1-oxopropylamino)phenyl)hexyl)-2-quinolinyl carboxamide], the IC50 was 50.8 nM.

On to `CCC(C)[C@H](NC(=O)N(C)Cc1ccc2ccccc2n1)C(=O)N[C@@H](Cc1ccccc1)[C@H](O)Cc1ccccc1C(=O)NC(C)(C)C` (stereo partly drawn) [Example 39, [2R-(2R*, 3S*, 6S*)]-N-t-butyl-2-(2-hydroxy-3-phenylmethyl-4-aza-5-oxo-6-(1-methylpropyl)-7-aza-8-oxo-8-(N-methyl-N-quinolin-2-ylmethylamino)octyl)benzamide], for which the IC50 is 5.06 nM.

As to `Cc1ccc2ccc(C(=O)N[C@@H](CC(N)=O)C(=O)N[C@@H](Cc3ccccc3)[C@H](O)Cc3ccccc3C(=O)NC(C)(C)C)nc2c1` [Example 23, [1S-(1R*, 4R*, 5S*)]-N-(1-(2-amino-2-oxoethyl)-2-oxo-3-aza-4-phenylmethyl-5-hydroxy-6-(2-(1-t-butylamino-1-oxomethyl)phenyl)hexyl)-7-methylquinolin-2-yl carboxamide], the IC50 is 0.641 nM.

Regarding `CC(C)(C)NC(=O)c1ccccc1C[C@@H](O)[C@H](Cc1ccccc1)NC(=O)[C@H](CO)NC(=O)OCc1ccccc1` [Example 12, [2R-(2R*, 3S*, 6S*)]-N-t-butyl-2-(2-hydroxy-3-phenylmethyl-4-aza-5-oxo-6-hydroxymethyl-6-(N-phenylmethoxycarbonyl-amino)hexyl)benzamide], the IC50 is 890 nM.

Regarding `CC(C)(C)NC(=O)c1ccccc1C[C@@H](O)[C@H](Cc1ccccc1)NC(=O)[C@H](CC(=O)NNc1cccnc1)NC(=O)c1ccc2ccccc2n1` [Example 50, [1S-(1R*, 4R*, 5S*)]-N-(1-(2-(N-(N-3-pyridyl)amino)amino)-2-oxoethyl)-2-oxo-3-aza-4-phenylmethyl-5-hydroxy-6-(2-(1-t-butylamino-1-oxomethyl)phenyl)hexyl)-2-quinolinyl carboxamide], under setting [1], the IC50 was 0.228 nM.

In the case of `CC(C)(C)NC(=O)c1ccccc1C[C@@H](O)[C@H](Cc1ccc(OCc2ccccc2)cc1)NC(=O)[C@H](CC(N)=O)NC(=O)c1ccc2ccccc2n1` [Example 9, [1S-(1R*, 4R*, 5S*)]-N-(1-(2-amino-2-oxoethyl)-2-oxo-3-aza-4-(4-phenylmethyloxy)phenylmethyl-5-hydroxy-6-(2-(1-t-butylamino-1-oxomethyl)phenyl)hexyl)-2-quinolinyl carboxamide], the concentration for half-maximal inhibition (IC50) is 12 nM.

For “[1S-(1R*, 4R*, 5S*)]-N-(1-(2-amino-2-oxoethyl)-2-oxo-3-aza-4-phenylmethyl-5-hydroxy-6-(2- (1-t-butylamino-1-oxomethyl)phenyl)hexyl)-2(6, 7, 8, 9-tetrahydronaphthyl) carboxamide [Example 33]”, the “Fluorescence Assay IC50” value under setting [1] was 1.4 ng/mL.

For the compound `CC(C)(C)NC(=O)c1cc2ccccc2cc1C[C@@H](O)[C@H](Cc1ccccc1)NC(=O)[C@H](CC(N)=O)NC(=O)c1ccc2ccccc2n1` (relative stereo) [Example 5, 1S-(1R*. 4R*, 5S*)]-N-(1-(2-amino-2-oxoethyl)-2-oxo-3-aza-4-phenylmethyl-5-hydroxy-6-(3-(1-t-butylamino-1-oxomethyl)-2-naphthyl)hexyl)-2-quinolinyl carboxamide], the concentration for half-maximal inhibition (IC50) is 12.7 nM.
